Data reported in US10206916B2, “Cabozantinib salts and their use as anti-cancer agents” (Sandoz AG, priority 2015, dated 2019).
Values belong to the compound of their own block, whether it stands above or below them.

Tests used:
[1] = reported in WO2010/083414; cited from earlier work
[2] = Thermogravimetric/differential thermal analysis (TG/DTA); type: physicochemical
Experimental: B) Organic Solvent Content: Thermogravimetric Analysis (TGA) Approximately, 5-10 mg of material was accurately weighed into an open aluminium pan and loaded into a simultaneous thermogravimetric/differential thermal analyser (TG/DTA) and held at room temperature. The sample was then heated at a rate of 10° C./min from 25° C. to 300° C. during which time the change in sample weight was recorded along with any differential thermal events (DTA). Nitrogen was used as the purge gas, at a flow rate of 100 cm^3/min.

[3] = Dynamic vapour sorption (DVS) with post-DVS XRPD; type: physicochemical; details: for water up take (weight gain) by DVS: between 20% and 70% RH, ca. 25° C.; for hygroscopicity by DVS: 20% to 70% RH, non-hygroscopic = weight gain of less than 2 weight-%; for Post-DVS XRPD analysis: after DVS sorption/desorption cycle; for hygroscopicity compared with cabozantinib malate: based on DVS isotherm
Experimental: XRPD analysis was carried out on a Siemens D5000 diffractometer, scanning the samples between 3 and 50 or 30°2-theta. For samples of less than 100 mg, 10-20 mg of material was gently compressed onto a glass disc inserted into an XRPD sample holder. For samples of more than 100 mg, ca. 100 mg of material was gently compressed into a plastic XRPD sample holder to ensure a smooth sample surface, just above the level of the sample holder. The sample was then loaded into the diffractometer running in reflection mode and analyzed using the following experimental conditions. C) Water Content: Dynamic Vapour Sorption (DVS) Approximately 10-20 mg of sample was placed into a vapour sorption balance pan and loaded into a DVS-1 dynamic vapour sorption balance by Surface Measurement Systems. The sample was subjected to a ramping profile from 20-90% relative humidity (RH) at 10% increments, maintaining the sample at each step until a stable weight had been achieved (99.5% step completion). After completion of the sorption cycle, the sample was dried using the same procedure, but all the way down to 0% RH and finally taken back to the starting point of 20% RH. The weight change during the sorption/desorption cycles were plotted, allowing for the hygroscopic nature of the sample to be determined.

[4] = cited from earlier work
[5] = Aqueous solubility measurement (slurry in deionized water, HPLC analysis); type: physicochemical
Experimental: HPLC analysis was performed according to the following conditions: • Instrument: Agilent 1100 • Column: Grace Smart RP 185μ 150×4.6 mm • Column Temperature: 30° C. UV wavelength: 249 nm • Injection Volume: 10 μl • Flow Rate: 1.2 ml/min • Mobile Phase A: 0.1% Phosphoric acid • Mobile Phase B: 0.1% Phosphoric acid in acetonitrile • Gradient program: H) Aqueous Solubility Measurements Each salt was individually slurried in deionized water and subjected to shaking for ca. 24 h at ambient temperature (ca. 22° C.). The resulting saturated solutions were filtered and analyzed by HPLC analysis. XRPD analysis was carried out on any solid retained after the solubility experiment.

[6] = listed as cabozantinib succinate Form A, succinate
[7] = listed as crystalline succinate salt of cabozantinib, succinate
[8] = listed as acetate salt, acetate

TG/DTA weight loss corresponding to the endotherm in DTA trace at ca. 178° C. ([2]; at ca. 178° C.): C. and 1% loss
TG/DTA weight loss below ca. 178° C. ([2]; below ca. 178° C.): 1.2 weight-% loss
weight gain relative to cabozantinib succinate Form A ([3]; DVS, 20 to 70% RH): 10 fold
water up take (weight gain) by DVS [3]: 0.3 weight-%
water up take (weight gain) by DVS ([3]; listed as L-malate): about 0.3 weight-%
water up take (weight gain) by DVS ([3]; listed as cabozantinib malate): about 0.3 weight-%
Compound: COc1cc2nccc(Oc3ccc(NC(=O)C4(C(=O)Nc5ccc(F)cc5)CC4)cc3)c2cc1OC [(L)-malate, reference compound]
hygroscopicity as reported [1]: non-hygroscopic
solubility compared with cabozantinib free base [4]: enhanced solubility

Compound: COc1cc2nccc(Oc3ccc(NC(=O)C4(C(=O)Nc5ccc(F)cc5)CC4)cc3)c2cc1OC [Cabozantinib, N-{4-[(6,7-dimethoxy-4-quinolinyl)oxy]phenyl}-N′-(4-fluorophenyl)-1,1-cyclopropanedicarboxamide]
solubility (BCS classification) [4]: low solubility

TG/DTA weight loss corresponding to the endotherm in the DTA trace at ca. 173° C. ([2]; heating rate 10° C./min, at ca. 173° C., listed as cabozantinib succinate Form A, succinate): ~1 weight-%
TG/DTA weight loss below ca. 173° C. ([2]; heating rate 10° C./min, below ca. 173° C., listed as cabozantinib succinate Form A, succinate): < 0.6 weight-%
hygroscopicity by DVS [3]: non-hygroscopic
hygroscopicity compared with cabozantinib malate [3, 6]: less hygroscopic
hygroscopicity compared with cabozantinib malate ([3]; succinate): lower hygroscopicity
water up take (weight gain) by DVS [3, 6]: about 0.03 weight-%
water up take (weight gain) by DVS [3, 7]: ca. 0.03 weight-%
water up take (weight gain) by DVS ([3]; succinate): 0.03 weight-%
solubility compared to cabozantinib malate ([5]; comparison in words, no malate value printed): improved solubility
solid form after the solubility experiment (XRPD) ([5]; solid retained after solubility experiment): consistent with the input succinate salt
solubility ([5]; thermodynamic from solid, deionized water, shaking ca. 24 h, ambient temperature (ca. 22° C.), HPLC analysis): 164 µg/mL
Compound: COc1cc2nccc(Oc3ccc(NC(=O)C4(C(=O)Nc5ccc(F)cc5)CC4)cc3)c2cc1OC.O=C(O)CCC(=O)O [Form A, N-{4-[(6,7-dimethoxy-4-quinolinyl)oxy]phenyl}-N′-(4-fluorophenyl)-1,1-cyclopropanedicarboxamide succinate]
Post-DVS XRPD analysis [3, 6]: remained crystalline and consistent with the input form
Post-DVS XRPD analysis [3, 7]: remained crystalline and was consistent with the input form

hygroscopicity by DVS [3]: non-hygroscopic
Post-DVS XRPD analysis [3, 8]: remained crystalline
hygroscopicity compared with cabozantinib malate [3]: less hygroscopic
water up take (weight gain) by DVS [3, 8]: ~0.1 weight-%
Compound: CC(=O)O.COc1cc2nccc(Oc3ccc(NC(=O)C4(C(=O)Nc5ccc(F)cc5)CC4)cc3)c2cc1OC [Form A-1, N-{4-[(6,7-dimethoxy-4-quinolinyl)oxy]phenyl}-N′-(4-fluorophenyl)-1,1-cyclopropanedicarboxamide acetate]
Post-DVS XRPD analysis ([3]; acetate): remained crystalline and consistent with the input form
